Results: paper PMC4139024, “Synthesis and In Vitro Inhibition Effect of New Pyrido[2,3-d]pyrimidine Derivatives on Erythrocyte Carbonic Anhydrase I and II” (BioMed Research International, 2014)
pIC50: −log10 of the molar value.

Tests used:
[1] = molecular target: T1, human carbonic anhydrase I (hCA I) (Homo sapiens, UniProt P00915); experiment: hCA I inhibition assay (Maren method, CO2 hydration); type: biochemical; details: purified human erythrocyte hCA I, CO2 as substrate
T1 construct: from tissue
Method: (§1) Blood samples (25 mL) were taken from healthy human volunteers. They were anticoagulated with acid-citrate-dextrose and centrifuged at 2000 g for 20 min at 4°C and the supernatant was removed. The packed erythrocytes were washed three times with 0.9% NaCl and then haemolysed in cold water. The ghosts and any intact cells were removed by centrifugation at 2000 g for 25 min at 4°C, and the pH of the haemolysate was adjusted to pH 8.5 with solid Tris-base. The 25 mL haemolysate was applied to an affinity column containing L-tyrosine-sulfonamide-sepharose-4B [21] equilibrated with 25 mM Tris-HCl/0.1 M Na2SO4 (pH 8.5). The affinity gel was washed with 50 mL of 25 mM Tris-HCl/22 mM Na2SO4 (pH 8.5). The hCA isozymes were then eluted with 0.1 M NaCl/25 mM Na2HPO4 (pH 6.3) and 0.1 M CH3COONa/0.5 M NaClO4 (pH 5.6), which recovered hCA I and hCA II, respectively. Fractions of 3 mL were collected and their absorbance was measured at 280 nm.
(§2) CA activity was measured by the Maren method which is based on determination of the time required for the pH to decrease from 10.0 to 7.4 due to CO2 hydration. The assay solution was 0.5 M Na2CO3/0.1 M NaHCO3 (pH 10.0) and Phenol Red was added as the pH indicator. CO2-hydratase activity (enzyme units (EU)) was calculated by using the equation t 0 − t c/t c, where t 0 and t c are the times for pH change of the nonenzymatic and the enzymatic reactions, respectively.
(§3) For the inhibition studies of indolylchalcone and pyrido[2,3-d]pyrimidine derivatives, different concentrations of these compounds were added to the enzyme. Activity percentage values of CA for different concentrations of each pyrimidine derivatives were determined by regression analysis using Microsoft Office 2000 Excel. CA enzyme activity without these compounds was accepted as 100% activity.

[2] = molecular target: T2, human carbonic anhydrase II (hCA II) (Homo sapiens, UniProt P00918); experiment: hCA II inhibition assay (Maren method, CO2 hydration); type: biochemical; details: purified human erythrocyte hCA II, CO2 as substrate
T2 construct: from tissue
Method: as §1, §2, §3

T1 sequence (P00915 whole entry): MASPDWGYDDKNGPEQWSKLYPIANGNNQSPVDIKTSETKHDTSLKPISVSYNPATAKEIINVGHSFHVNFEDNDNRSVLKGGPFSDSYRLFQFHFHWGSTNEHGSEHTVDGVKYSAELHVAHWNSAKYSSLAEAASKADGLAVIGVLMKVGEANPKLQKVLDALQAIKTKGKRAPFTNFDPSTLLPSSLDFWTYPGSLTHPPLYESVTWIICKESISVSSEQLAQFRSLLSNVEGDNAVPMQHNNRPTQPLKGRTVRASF

| melting point [°C] | SMILES | pIC50 [1] | pIC50 [2] |
| --- | --- | --- | --- |
| 397 | Cn1cc(-c2cc(-c3cccc([N+](=O)[O-])c3)nc3c2c(=O)[nH]c(=O)n3C)c2ccccc21 [Compound 7d, 1-Methyl-5-(1-methyl-1H-indol-3-yl)-7-(3-nitrophenyl)pyrido[2,3-d]pyrimidine-2,4(1H,3H)-dione] | 4.92 | 4.86 |
| 333 to 334 | COc1ccc(-c2cc(-c3cn(C)c4ccccc34)c3c(=O)[nH]c(=O)n(C)c3n2)cc1OC [Compound 7a, 7-(3,4-Dimethoxyphenyl)-1-methyl-5-(1-methyl-1H-indol-3-yl)pyrido[2,3-d]pyrimidine-2,4(1H,3H)-dione] | 4.79 | 4.71 |
| 320 | Cn1c(=O)c2c(-c3cn(C)c4ccccc34)cc(-c3ccccc3)nc2n(C)c1=O [Compound 7i, 1,3-Dimethyl-5-(1-methyl-1H-indol-3-yl)-7-phenylpyrido[2,3-d]pyrimidine-2,4(1H,3H)-dione] | 5.06 | 5.09 |
| 271 | COc1ccc(C(=O)/C=C/c2cn(C)c3ccccc23)cc1OC [Compound 5a, (E)-1-(3,4-Dimethoxyphenyl)-3-(1-methyl-1H-indol-3-yl) prop-2-en-1-one] | 5.08 | 5.05 |
| – | Cn1cc(/C=C/C(=O)c2ccccc2)c2ccccc21 [Compound 5e, (E)-3-(1-Methyl-1H-indol-3-yl)-1-phenylprop-2-en-1-one] | 4.89 | 5.04 |
| 358 to 359 | Cn1c(=O)c2c(-c3cn(C)c4ccccc34)cc(-c3ccc(Cl)cc3)nc2n(C)c1=O [Compound 7h, 7-(4-Chlorophenyl)-1,3-dimethyl-5-(1-methyl-1H-indol-3-yl)pyrido[2,3-d]pyrimidine 2,4(1H,3H)-dione] | 4.91 | 4.61 |
| 340 to 341 | COc1ccc(-c2cc(-c3cn(C)c4ccccc34)c3c(=O)n(C)c(=O)n(C)c3n2)cc1OC [Compound 7e, 7-(3,4-Dimethoxyphenyl)-1,3-dimethyl-5-(1-methyl-1H-indol-3-yl)pyrido[2,3-d]pyrimidine-2,4(1H,3H)-dione] | 5.17 | 5.09 |
| 267 | Cn1cc(/C=C/C(=O)c2cccc([N+](=O)[O-])c2)c2ccccc21 [Compound 5g, (E)-3-(1-Methyl-1H-indol-3-yl)-1-(3-nitrophenyl)prop-2-en-1-one] | 5.08 | 5.14 |
| 240 | Cc1ccc(C(=O)/C=C/c2cn(C)c3ccccc23)cc1 [Compound 5c, (E)-3-(1-Methyl-1H-indol-3-yl)-1-p-tolylprop-2-en-1-One] | 4.88 | 4.91 |
| 254 | COc1ccc(C(=O)/C=C/c2cn(C)c3ccccc23)cc1 [Compound 5b, (E)-1-(4-Methoxyphenyl)-3-(1-methyl-1H-indol-3-yl) prop-2-en-1-one] | 5.13 | 4.99 |
| 248 | Cn1cc(/C=C/C(=O)c2ccc(Cl)cc2)c2ccccc21 [Compound 5d, (E)-1-(4-Chlorophenyl)-3-(1-methyl-1H-indol-3-yl)prop-2-en-1-one] | 5.09 | 5.08 |
| 340 to 341 | Cc1ccc(-c2cc(-c3cn(C)c4ccccc34)c3c(=O)n(C)c(=O)n(C)c3n2)cc1 [Compound 7g, 1,3-Dimethyl-5-(1-methyl-1H-indol-3-yl)-7-p-tolylpyrido[2,3-d]pyrimidine-2,4(1H,3H)-dione] | 5.12 | 5.12 |
| 278 | Cn1cc(/C=C/C(=O)c2ccc([N+](=O)[O-])cc2)c2ccccc21 [Compound 5f, (E)-3-(1-Methyl-1H-indol-3-yl)-1-(4-nitrophenyl)prop-2-en-1-one] | 4.96 | 5.03 |
| 347 to 349 | Cn1c(=O)c2c(-c3cn(C)c4ccccc34)cc(-c3ccc([N+](=O)[O-])cc3)nc2n(C)c1=O [Compound 7j, 1,3-Dimethyl-5-(1-methyl-1H-indol-3-yl)-7-(4-nitrophenyl)pyrido[2,3-d]pyrimidine-2,4(1H,3H)-dione] | 4.99 | 5.02 |
| 399 to 400 | Cc1ccc(-c2cc(-c3cn(C)c4ccccc34)c3c(=O)[nH]c(=O)n(C)c3n2)cc1 [Compound 7b, 1-Methyl-5-(1-methyl-1H-indol-3-yl)-7-p-tolylpyrido[2,3-d]pyrimidine-2,4(1H,3H)-dione] | 4.94 | 4.92 |
| 385 to 389 | Cn1cc(-c2cc(-c3ccc(Cl)cc3)nc3c2c(=O)[nH]c(=O)n3C)c2ccccc21 [Compound 7c, 7-(4-Chlorophenyl)-1-methyl-5-(1-methyl-1H-indol-3-yl)pyrido[2,3-d]pyrimidine-2,4(1H,3H)-dione] | 4.68 | 4.51 |
| 335.7 to 336 | COc1ccc(-c2cc(-c3cn(C)c4ccccc34)c3c(=O)n(C)c(=O)n(C)c3n2)cc1 [Compound 7f, 7-(4-Methoxyphenyl)-1,3-dimethyl-5-(1-methyl-1H-indol-3-yl)pyrido[2,3-d]pyrimidine-2,4(1H,3H)-dione] | 4.58 | 4.60 |
| 349 to 350 | Cn1c(=O)c2c(-c3cn(C)c4ccccc34)cc(-c3cccc([N+](=O)[O-])c3)nc2n(C)c1=O [Compound 7k, 1,3-Dimethyl-5-(1-methyl-1H-indol-3-yl)-7-(3-nitrophenyl)pyrido[2,3-d]pyrimidine-2,4(1H,3H)-dione] | 4.65 | 4.57 |
